The source of these data is ChEMBL document CHEMBL4725478, “Spiroindoline-Capped Selective HDAC6 Inhibitors: Design, Synthesis, Structural Analysis, and Biological Evaluation” (ACS Med Chem Lett, 2020).

The source made the active and inactive calls. No cut-off for these calls is given here.

The target in data set [1] is Histone deacetylase 1 (Homo sapiens, UniProt Q13547). Kind of data set: Inhibition of full length C-terminal His/FLAG-tagged human HDAC1 expressed in baculovirus expression system using ZMAL as substrate incubated for 90 mins by fluorescence assay.
Chain of Histone deacetylase 1 (Q13547 whole entry): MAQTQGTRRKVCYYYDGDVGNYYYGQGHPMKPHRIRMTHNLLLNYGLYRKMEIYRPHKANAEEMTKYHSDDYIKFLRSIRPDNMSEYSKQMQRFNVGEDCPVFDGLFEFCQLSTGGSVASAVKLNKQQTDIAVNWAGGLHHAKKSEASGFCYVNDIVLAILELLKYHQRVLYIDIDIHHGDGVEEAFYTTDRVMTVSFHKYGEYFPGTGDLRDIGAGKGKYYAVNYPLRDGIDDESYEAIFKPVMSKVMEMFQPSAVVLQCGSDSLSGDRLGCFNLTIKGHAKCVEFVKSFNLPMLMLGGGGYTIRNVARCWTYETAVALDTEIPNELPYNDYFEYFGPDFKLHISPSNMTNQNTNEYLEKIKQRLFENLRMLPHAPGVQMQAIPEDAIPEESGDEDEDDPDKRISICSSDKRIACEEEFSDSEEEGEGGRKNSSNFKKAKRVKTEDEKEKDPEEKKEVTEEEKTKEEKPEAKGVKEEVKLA
Data set [2] addresses T1, Protein deacetylase HDAC6 (Homo sapiens, UniProt Q9UBN7).
T1 sequence (Q9UBN7 whole entry): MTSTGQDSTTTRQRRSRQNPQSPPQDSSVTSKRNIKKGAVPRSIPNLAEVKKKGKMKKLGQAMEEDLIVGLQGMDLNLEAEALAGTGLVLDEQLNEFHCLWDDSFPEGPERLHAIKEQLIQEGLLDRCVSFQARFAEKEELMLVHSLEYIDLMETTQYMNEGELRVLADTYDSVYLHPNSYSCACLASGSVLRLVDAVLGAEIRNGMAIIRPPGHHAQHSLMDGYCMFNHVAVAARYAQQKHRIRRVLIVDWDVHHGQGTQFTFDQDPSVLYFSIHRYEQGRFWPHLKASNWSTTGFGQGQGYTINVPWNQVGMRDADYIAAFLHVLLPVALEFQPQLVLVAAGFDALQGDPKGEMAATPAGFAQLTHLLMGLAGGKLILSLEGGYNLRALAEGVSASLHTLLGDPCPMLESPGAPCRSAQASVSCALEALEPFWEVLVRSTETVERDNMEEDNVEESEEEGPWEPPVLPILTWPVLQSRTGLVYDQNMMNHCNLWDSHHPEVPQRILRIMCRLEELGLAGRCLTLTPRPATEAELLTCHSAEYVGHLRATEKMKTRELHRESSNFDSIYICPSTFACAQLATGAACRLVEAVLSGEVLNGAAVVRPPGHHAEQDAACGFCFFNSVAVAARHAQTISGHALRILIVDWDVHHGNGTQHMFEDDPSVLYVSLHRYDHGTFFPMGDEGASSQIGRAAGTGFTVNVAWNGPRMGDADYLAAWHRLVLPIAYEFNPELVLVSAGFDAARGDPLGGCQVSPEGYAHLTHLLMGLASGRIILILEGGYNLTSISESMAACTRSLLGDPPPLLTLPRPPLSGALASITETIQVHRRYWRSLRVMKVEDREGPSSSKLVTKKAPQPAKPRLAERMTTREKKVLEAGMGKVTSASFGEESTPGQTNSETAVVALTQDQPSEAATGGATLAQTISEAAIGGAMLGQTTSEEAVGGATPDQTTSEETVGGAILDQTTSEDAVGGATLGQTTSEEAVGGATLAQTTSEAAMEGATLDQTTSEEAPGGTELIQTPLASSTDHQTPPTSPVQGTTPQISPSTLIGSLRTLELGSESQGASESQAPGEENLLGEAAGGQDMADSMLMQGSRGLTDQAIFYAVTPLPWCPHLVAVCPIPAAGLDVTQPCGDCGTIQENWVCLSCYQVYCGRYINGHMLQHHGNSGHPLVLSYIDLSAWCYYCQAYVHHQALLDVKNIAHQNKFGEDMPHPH
Kind of data set: Inhibition of full length N-terminal GST-tagged human HDAC6 expressed in baculovirus expression system using ZMAL as substrate incubated for 90 mins by fluorescence assay.

Data set [3] is filed under the species Homo sapiens. As to the kind of experiment: Selectivity ratio of IC50 for full length C-terminal His/FLAG-tagged human HDAC1 expressed in baculovirus expression system to IC50 full length N-terminal GST-tagged human HDAC6 expressed in baculovirus expression system.
Data set [4] in a line: Cytotoxicity against mouse NIH3T3 cells assessed as reduction in cell viability measured after 24 hrs by neutral red uptake assay. The format is cell-based. Particulars: read-out: TC50.
The subject of data set [5] is KYSE-520 cell line. As to the kind of experiment: Antiproliferative activity against human KYSE520 cells assessed as reduction in cell viability measured after 48 hrs by alamar blue dye based spectrofluorometry. It counts as functional. To be noted: KYSE-520, 48 h.
Data set [6] deals with OE33. Kind of data set: Antiproliferative activity against human OE33 cells assessed as reduction in cell viability measured after 72 hrs by MTT assay. The format is functional, cell-based. To be noted: OE33, 72 h.
In data set [7] the test system is Ca9-22. Kind of data set: Antiproliferative activity against human Ca9-22 cells assessed as reduction in cell viability measured after 48 hrs by alamar blue dye based spectrofluorometry. The format is functional. Particulars: Ca9-22, 48 h.
The nature of data set [8]: Antiproliferative activity against human TR-146 cells assessed as reduction in cell viability measured after 48 hrs by alamar blue dye based spectrofluorometry. Particulars: TR146, 48 h. The format is functional.
The subject of data set [9] is U-937. Kind of data set: Cell cycle arrest in human U-937 cells assessed as reduction in accumulation at S-phase at 10 uM measured after 24 to 48 hrs by propidium iodide staining based flow cytometry. It counts as functional. Particulars: time hrs 24-48.
For data set [10], the system named is NB-4. Kind of data set: Cell cycle arrest in human NB-4 cells at 5 to 10 uM measured after 24 to 48 hrs by propidium iodide staining based flow cytometry. It counts as functional. To be noted: dose microM 5-10, time hrs 24-48.
The test system of data set [11] is NB-4. Kind of data set: Induction of apoptosis in human NB-4 cells assessed as increase in cleaved PARP expression at 10 uM measured after 24 to 48 hrs by Western blot analysis. The format is functional, cell-based. To be noted: time hrs 24-48.
Data set [12] concerns KYSE-520 cell line. As to the kind of experiment: Induction of apoptosis human KYSE520 cells at 30 to 100 uM measured after 48 hrs by Annexin-V/propidium iodide staining based assay. It counts as functional, cell-based. Particulars: dose microM 30-100, time 48.0 hrs.
A short description of data set [13]: Mutagenicity in Salmonella typhimurium TA98 at 8 to 160 uM measured after 90 mins in absence of S9 fraction by Ames test. The format is toxicity. Particulars: salmonella enterica subsp. enterica serovar typhimurium, s9, 1.5 h, dose 8-160 µM.
A short description of data set [14]: Mutagenicity in Salmonella typhimurium TA98 at 8 to 160 uM measured after 90 mins in presence of S9 fraction by Ames test. It counts as toxicity, subcellular. To be noted: salmonella enterica subsp. enterica serovar typhimurium, s9, 1.5 h, dose 8-160 µM.
Data set [15] in a line: Mutagenicity in Salmonella typhimurium TA100 at 8 uM measured after 90 mins in absence of S9 fraction by Ames test. It counts as toxicity. Particulars: salmonella enterica subsp. enterica serovar typhimurium, s9, 1.5 h.
Data set [16] is described as follows: Mutagenicity in Salmonella typhimurium TA100 at 8 uM measured after 90 mins in presence of S9 fraction by Ames test. To be noted: salmonella enterica subsp. enterica serovar typhimurium, s9, 1.5 h. It counts as toxicity, subcellular.

`O=C(NO)c1ccc(CN2CCC3(CC2)CN(Cc2ccccc2)c2ccccc23)cc1`: the half-inhibitory concentration (IC50) was found to be 6.5 µM in data set [1]; 0.561 µM in data set [2]; 12.8 µM in data set [5]; 5.56 µM in data set [6]; 19 µM in [7]; 18 µM in [8]. For the same compound, the Ratio IC50 in [3] was determined as 12. Besides, the CC50 at 24 h in data set [4] was 40 µM. Also, the outcome in [9], in [10], in data set [11] and in data set [12] was Active. For the same compound, the Activity entry in data set [13] is listed as “Non-Toxic”; in data set [14] it was “Non-Toxic”; in [15], “Toxic”; in [16], “Toxic”.
